# According to ChEMBL document CHEMBL1122535, “Mesoionic pyridazine ribonucleosides. A novel biologically active nucleoside metabolite” (1984):
# Assays:
# [1] = system: Escherichia coli; test: Minimum inhibitory concentration against Escherichia coli (EC) in Davis minimal media under Anaerobic conditions(in vitro); assay type: functional
# [2] = system: Escherichia coli; test: Minimum inhibitory concentration against Escherichia coli (EC) in Davis minimal media under Aerobic conditions(in vitro); assay type: functional
# [3] = system: Escherichia coli; test: Minimum inhibitory concentration against Escherichia coli (EC) in Davis minimal media under Anaerobic conditions(in vitro); No indication of toxicity; assay type: functional, organism-based
# [4] = system: Escherichia coli; test: Minimum inhibitory concentration against Escherichia coli (EC) in Davis minimal media under aerobic conditions(in vitro); No indication of toxicity; assay type: functional, organism-based
SMILES,MIC [1] [µg/mL],MIC [2] [µg/mL],MIC [3],MIC [4]
COc1cc[n+]([C@@H]2O[C@H](CO)[C@@H](O)[C@H]2O)nc1[O-],100,,,
[O-]c1n[n+]([C@@H]2O[C@H](CO)[C@@H](O)[C@H]2O)ccc1Cl,0.2,0.2,,
N#Cc1cc[n+]([C@@H]2O[C@H](CO)[C@@H](O)[C@H]2O)nc1[O-],3.1,0.78,,
NC(=O)c1cc[n+]([C@@H]2O[C@H](CO)[C@@H](O)[C@H]2O)nc1[O-],,,No indication of toxicity,No indication of toxicity
CC(=O)OC[C@H]1O[C@@H]([n+]2ccc(C#N)c([O-])n2)[C@H](O)[C@@H]1O,,100,,

# More lines, in order of falling MIC [1], values ahead:
MIC [1] [µg/mL],MIC [2] [µg/mL],SMILES,MIC [3],MIC [4]
100,,N.[O-]c1n[n+]([C@@H]2O[C@H](CO)[C@@H](O)[C@H]2O)ccc1S,,
100,,Nc1cc[n+]([C@@H]2O[C@H](CO)[C@@H](O)[C@H]2O)nc1[O-],,
25,25,CC(=O)OC[C@H]1O[C@@H]([n+]2ccc(Cl)c([O-])n2)[C@H](O)[C@@H]1O,,
